# Measured values from the supplement of paper PMC10307832.
# Experiments:
# Assay in all cases: relative viability (nuclei count vs DMSO), 5 days (fraction); higher = more cells survive
# NCI-H727 = test system: NCI-H727
# Outline: (§1)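 Lung cancer cell lines were seeded in 1536-well plates and dosed by pin tool the next day, with either a single drug or a fixed anchor-drug dose combined with five library-drug doses (not always all listed) spaced in √10 steps. Five days later, one step fixed the cells and stained their nuclei (final 0.05% Triton X-100, 1% formaldehyde, 1 ug/ml Hoechst), and nuclei were counted on 4× images. Relative viability is the nuclei count in treated wells divided by the count in vehicle wells, and each value is the median of duplicate plates.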
# SW 1573 = test system: SW 1573
# Outline: as §1
# NCI-H1563 = test system: NCI-H1563
# Outline: as §1
# NCI-H23 = test system: NCI-H23
# Outline: as §1
# LCLC-103H = test system: LCLC-103H
# Outline: as §1
# NCI-H650 = test system: NCI-H650
# Outline: as §1
# NCI-H1944 = test system: NCI-H1944
# Outline: as §1
# PC-3 [JPC-3] = test system: PC-3 [JPC-3]
# Outline: as §1
# NCI-H1651 = test system: NCI-H1651
# Outline: as §1
# NCI-H460 = test system: NCI-H460
# Outline: as §1
# RERF-LC-KJ = test system: RERF-LC-KJ
# Outline: as §1
# COR-L23 = test system: COR-L23
# Outline: as §1
# LK-2 = test system: LK-2
# Outline: as §1
# A-427 = test system: A-427
# Outline: as §1
# PC-14 = test system: PC-14
# Outline: as §1
# LU99A = test system: LU99A
# Outline: as §1
# NCI-H1793 = test system: NCI-H1793
# Outline: as §1
# 201T = test system: 201T
# Outline: as §1
# LCLC-97TM1 = test system: LCLC-97TM1
# Outline: as §1
# NCI-H838 = test system: NCI-H838
# Outline: as §1
# H3255 = test system: H3255
# Outline: as §1
# NCI-H2347 = test system: NCI-H2347
# Outline: as §1
smiles,measurement,setting,value
COc1cc(N2CCC(C(N)=O)CC2)ccc1Nc1nc(N)c(Cl)c(Nc2ccccc2S(=O)(=O)C(C)C)n1 [HG-5-88-01] + C[C@]1(O)C[C@@H](c2nc(-c3ccc4ccc(-c5ccccc5)nc4c3)c3c(N)nccn32)C1 [Linsitinib] (partner 1 µM),relative viability,NCI-H727; first compound 0.04 µM,0.337
same,relative viability,NCI-H727; first compound 0.1265 µM,0.336
same,relative viability,NCI-H727; first compound 0.4 µM,0.179
same,relative viability,NCI-H727; first compound 1.265 µM,0.221
same,relative viability,NCI-H727; first compound 4 µM,0.324
same,relative viability,SW 1573; first compound 0.04 µM,0.796
same,relative viability,SW 1573; first compound 0.1265 µM,0.961
same,relative viability,SW 1573; first compound 0.4 µM,0.855
same,relative viability,SW 1573; first compound 1.265 µM,0.704
same,relative viability,SW 1573; first compound 4 µM,0.83
same,relative viability,NCI-H1563; first compound 0.04 µM,1.1
same,relative viability,NCI-H1563; first compound 0.1265 µM,1.17
same,relative viability,NCI-H1563; first compound 0.4 µM,1.23
same,relative viability,NCI-H1563; first compound 1.265 µM,1.21
same,relative viability,NCI-H1563; first compound 4 µM,1.21
same,relative viability,NCI-H23; first compound 0.04 µM,0.628
same,relative viability,NCI-H23; first compound 0.1265 µM,0.621
same,relative viability,NCI-H23; first compound 0.4 µM,0.652
same,relative viability,NCI-H23; first compound 1.265 µM,0.73
same,relative viability,NCI-H23; first compound 4 µM,0.61
same,relative viability,LCLC-103H; first compound 0.04 µM,0.986
same,relative viability,LCLC-103H; first compound 0.1265 µM,1.18
same,relative viability,LCLC-103H; first compound 0.4 µM,1.03
same,relative viability,LCLC-103H; first compound 1.265 µM,1.03
same,relative viability,LCLC-103H; first compound 4 µM,1.21
same,relative viability,NCI-H650; first compound 0.04 µM,1.01
same,relative viability,NCI-H650; first compound 0.1265 µM,0.985
same,relative viability,NCI-H650; first compound 0.4 µM,0.835
same,relative viability,NCI-H650; first compound 1.265 µM,0.936
same,relative viability,NCI-H650; first compound 4 µM,0.492
same,relative viability,NCI-H1944; first compound 0.04 µM,1.14
same,relative viability,NCI-H1944; first compound 0.1265 µM,1.19
same,relative viability,NCI-H1944; first compound 0.4 µM,1.19
same,relative viability,NCI-H1944; first compound 1.265 µM,0.803
same,relative viability,NCI-H1944; first compound 4 µM,1.31
same,relative viability,PC-3 [JPC-3]; first compound 0.04 µM,0.964
same,relative viability,PC-3 [JPC-3]; first compound 0.1265 µM,0.956
same,relative viability,PC-3 [JPC-3]; first compound 0.4 µM,0.947
same,relative viability,PC-3 [JPC-3]; first compound 1.265 µM,0.944
same,relative viability,PC-3 [JPC-3]; first compound 4 µM,0.83
same,relative viability,NCI-H1651; first compound 0.04 µM,1.02
same,relative viability,NCI-H1651; first compound 0.1265 µM,1.09
same,relative viability,NCI-H1651; first compound 0.4 µM,0.991
same,relative viability,NCI-H1651; first compound 1.265 µM,1.07
same,relative viability,NCI-H1651; first compound 4 µM,1.19
same,relative viability,NCI-H460; first compound 0.04 µM,0.73
same,relative viability,NCI-H460; first compound 0.1265 µM,0.81
same,relative viability,NCI-H460; first compound 0.4 µM,0.784
same,relative viability,NCI-H460; first compound 1.265 µM,0.81
same,relative viability,NCI-H460; first compound 4 µM,1.41
same,relative viability,RERF-LC-KJ; first compound 0.04 µM,0.823
same,relative viability,RERF-LC-KJ; first compound 0.1265 µM,0.897
same,relative viability,RERF-LC-KJ; first compound 0.4 µM,0.849
same,relative viability,RERF-LC-KJ; first compound 1.265 µM,0.864
same,relative viability,RERF-LC-KJ; first compound 4 µM,0.539
same,relative viability,COR-L23; first compound 0.04 µM,0.885
same,relative viability,COR-L23; first compound 0.1265 µM,0.888
same,relative viability,COR-L23; first compound 0.4 µM,0.872
same,relative viability,COR-L23; first compound 1.265 µM,0.738
same,relative viability,COR-L23; first compound 4 µM,0.757
same,relative viability,LK-2; first compound 0.04 µM,0.591
same,relative viability,LK-2; first compound 0.1265 µM,0.519
same,relative viability,LK-2; first compound 0.4 µM,0.634
same,relative viability,LK-2; first compound 4 µM,0.768
same,relative viability,A-427; first compound 0.04 µM,1.07
same,relative viability,A-427; first compound 0.1265 µM,1.11
same,relative viability,A-427; first compound 0.4 µM,1.15
same,relative viability,A-427; first compound 1.265 µM,1.14
same,relative viability,A-427; first compound 4 µM,1.09
same,relative viability,PC-14; first compound 0.04 µM,0.977
same,relative viability,PC-14; first compound 0.1265 µM,1.02
same,relative viability,PC-14; first compound 0.4 µM,0.955
same,relative viability,PC-14; first compound 1.265 µM,0.917
same,relative viability,PC-14; first compound 4 µM,0.331
same,relative viability,LU99A; first compound 0.04 µM,0.552
same,relative viability,LU99A; first compound 0.1265 µM,0.535
same,relative viability,LU99A; first compound 0.4 µM,0.531
same,relative viability,LU99A; first compound 1.265 µM,0.578
same,relative viability,LU99A; first compound 4 µM,0.589
same,relative viability,NCI-H1793; first compound 0.1265 µM,1.05
same,relative viability,NCI-H1793; first compound 0.4 µM,0.856
same,relative viability,NCI-H1793; first compound 1.265 µM,0.809
same,relative viability,NCI-H1793; first compound 4 µM,1.18
same,relative viability,201T; first compound 0.04 µM,1.02
same,relative viability,201T; first compound 0.1265 µM,1.04
same,relative viability,201T; first compound 0.4 µM,1.04
same,relative viability,201T; first compound 1.265 µM,0.945
same,relative viability,201T; first compound 4 µM,1.19
same,relative viability,LCLC-97TM1; first compound 0.04 µM,0.183
same,relative viability,LCLC-97TM1; first compound 0.1265 µM,0.201
same,relative viability,LCLC-97TM1; first compound 0.4 µM,0.18
same,relative viability,LCLC-97TM1; first compound 1.265 µM,0.152
same,relative viability,LCLC-97TM1; first compound 4 µM,0.158
same,relative viability,NCI-H838; first compound 0.04 µM,0.972
same,relative viability,NCI-H838; first compound 0.1265 µM,1.07
same,relative viability,NCI-H838; first compound 0.4 µM,0.885
same,relative viability,NCI-H838; first compound 1.265 µM,0.915
same,relative viability,NCI-H838; first compound 4 µM,0.956
same,relative viability,H3255; first compound 0.04 µM,1.03
same,relative viability,H3255; first compound 0.1265 µM,0.913
same,relative viability,H3255; first compound 0.4 µM,0.939
same,relative viability,H3255; first compound 4 µM,0.734
same,relative viability,NCI-H2347; first compound 0.04 µM,0.988
same,relative viability,NCI-H2347; first compound 0.1265 µM,0.933
same,relative viability,NCI-H2347; first compound 0.4 µM,1.1
same,relative viability,NCI-H2347; first compound 1.265 µM,0.959
same,relative viability,NCI-H2347; first compound 4 µM,1.03
